Results published in patent US20120296067A1, “COMPOUND CAPABLE OF BINDING TO NATURALLY OCCURRING DENATURED PROTEIN, AND METHOD FOR SCREENING FOR THE COMPOUND” (Prism BioLab Co., Ltd., priority 2010, published 2012).
Entries after “also recorded” stand apart in the source; their conditions may differ.

How the values were obtained:
[1] = biological target: T1, CBP (1-111) (disordered sequence region) and β-catenin (Homo sapiens, UniProt Q92793); settings: cited from earlier work
T1 construct: made in house; host or cells: E. coli
T1 sequence (Q92793 1-111): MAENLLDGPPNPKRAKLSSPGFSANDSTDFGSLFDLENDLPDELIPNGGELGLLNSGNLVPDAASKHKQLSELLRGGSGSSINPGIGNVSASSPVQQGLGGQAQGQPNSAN

[2] = biological target: T2, p300 (1-111) (disordered sequence region) (Homo sapiens, UniProt Q09472); settings: p300 (1-111) expressed in E. coli; cited from earlier work
T2 construct: made in house; host or cells: E. coli
T2 sequence (Q09472 1-111): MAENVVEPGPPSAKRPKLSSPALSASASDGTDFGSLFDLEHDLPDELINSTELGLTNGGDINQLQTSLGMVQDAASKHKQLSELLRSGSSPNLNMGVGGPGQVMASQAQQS

[3] = biological target: T3, CBP (1-111) (disordered sequence region) (Homo sapiens, UniProt Q92793); test: 2D NMR analysis of 15N-labeled CBP (1-111) with ICG-001; type: binding; settings: 5 μM or 15 μM ICG-001
T3 construct: NMR analysis using CBP (1-111) expressed in E. coli as a sample; made in house; host or cells: E. coli
T3 sequence (Q92793 1-111): as the sequence (Q92793 1-111) above
Description: ^15N-labeled CBP (1^-111) (disordered sequence region) was expressed E. coli and dissolved in a buffer (NaP 25 mM·pH 6.8, NaCl 50 mM, 0.02% NaN3), and 300 μl thereof was introduced into an NMR sample tube. Moreover, a D2O solution of ICG-001 was added so as to attain an ICG^-001 concentration of 5 μM or 15 μM. Solutions prepared in this manner as NMR samples were subjected to an NMR analysis. In the NMR analysis, the measurement and analysis was carried out to give a 2D spectrum, with the X axis indicating […] data and the Y axis indicating N-15 data.

CBP = biological target: T4, CBP (Homo sapiens, UniProt Q92793); settings: SW480 nuclear extract; FIG. 1; cited from earlier work
T4 construct: endogenous in cells; host or cells: SW480 nuclear extract
T4 sequence (Q92793 whole entry): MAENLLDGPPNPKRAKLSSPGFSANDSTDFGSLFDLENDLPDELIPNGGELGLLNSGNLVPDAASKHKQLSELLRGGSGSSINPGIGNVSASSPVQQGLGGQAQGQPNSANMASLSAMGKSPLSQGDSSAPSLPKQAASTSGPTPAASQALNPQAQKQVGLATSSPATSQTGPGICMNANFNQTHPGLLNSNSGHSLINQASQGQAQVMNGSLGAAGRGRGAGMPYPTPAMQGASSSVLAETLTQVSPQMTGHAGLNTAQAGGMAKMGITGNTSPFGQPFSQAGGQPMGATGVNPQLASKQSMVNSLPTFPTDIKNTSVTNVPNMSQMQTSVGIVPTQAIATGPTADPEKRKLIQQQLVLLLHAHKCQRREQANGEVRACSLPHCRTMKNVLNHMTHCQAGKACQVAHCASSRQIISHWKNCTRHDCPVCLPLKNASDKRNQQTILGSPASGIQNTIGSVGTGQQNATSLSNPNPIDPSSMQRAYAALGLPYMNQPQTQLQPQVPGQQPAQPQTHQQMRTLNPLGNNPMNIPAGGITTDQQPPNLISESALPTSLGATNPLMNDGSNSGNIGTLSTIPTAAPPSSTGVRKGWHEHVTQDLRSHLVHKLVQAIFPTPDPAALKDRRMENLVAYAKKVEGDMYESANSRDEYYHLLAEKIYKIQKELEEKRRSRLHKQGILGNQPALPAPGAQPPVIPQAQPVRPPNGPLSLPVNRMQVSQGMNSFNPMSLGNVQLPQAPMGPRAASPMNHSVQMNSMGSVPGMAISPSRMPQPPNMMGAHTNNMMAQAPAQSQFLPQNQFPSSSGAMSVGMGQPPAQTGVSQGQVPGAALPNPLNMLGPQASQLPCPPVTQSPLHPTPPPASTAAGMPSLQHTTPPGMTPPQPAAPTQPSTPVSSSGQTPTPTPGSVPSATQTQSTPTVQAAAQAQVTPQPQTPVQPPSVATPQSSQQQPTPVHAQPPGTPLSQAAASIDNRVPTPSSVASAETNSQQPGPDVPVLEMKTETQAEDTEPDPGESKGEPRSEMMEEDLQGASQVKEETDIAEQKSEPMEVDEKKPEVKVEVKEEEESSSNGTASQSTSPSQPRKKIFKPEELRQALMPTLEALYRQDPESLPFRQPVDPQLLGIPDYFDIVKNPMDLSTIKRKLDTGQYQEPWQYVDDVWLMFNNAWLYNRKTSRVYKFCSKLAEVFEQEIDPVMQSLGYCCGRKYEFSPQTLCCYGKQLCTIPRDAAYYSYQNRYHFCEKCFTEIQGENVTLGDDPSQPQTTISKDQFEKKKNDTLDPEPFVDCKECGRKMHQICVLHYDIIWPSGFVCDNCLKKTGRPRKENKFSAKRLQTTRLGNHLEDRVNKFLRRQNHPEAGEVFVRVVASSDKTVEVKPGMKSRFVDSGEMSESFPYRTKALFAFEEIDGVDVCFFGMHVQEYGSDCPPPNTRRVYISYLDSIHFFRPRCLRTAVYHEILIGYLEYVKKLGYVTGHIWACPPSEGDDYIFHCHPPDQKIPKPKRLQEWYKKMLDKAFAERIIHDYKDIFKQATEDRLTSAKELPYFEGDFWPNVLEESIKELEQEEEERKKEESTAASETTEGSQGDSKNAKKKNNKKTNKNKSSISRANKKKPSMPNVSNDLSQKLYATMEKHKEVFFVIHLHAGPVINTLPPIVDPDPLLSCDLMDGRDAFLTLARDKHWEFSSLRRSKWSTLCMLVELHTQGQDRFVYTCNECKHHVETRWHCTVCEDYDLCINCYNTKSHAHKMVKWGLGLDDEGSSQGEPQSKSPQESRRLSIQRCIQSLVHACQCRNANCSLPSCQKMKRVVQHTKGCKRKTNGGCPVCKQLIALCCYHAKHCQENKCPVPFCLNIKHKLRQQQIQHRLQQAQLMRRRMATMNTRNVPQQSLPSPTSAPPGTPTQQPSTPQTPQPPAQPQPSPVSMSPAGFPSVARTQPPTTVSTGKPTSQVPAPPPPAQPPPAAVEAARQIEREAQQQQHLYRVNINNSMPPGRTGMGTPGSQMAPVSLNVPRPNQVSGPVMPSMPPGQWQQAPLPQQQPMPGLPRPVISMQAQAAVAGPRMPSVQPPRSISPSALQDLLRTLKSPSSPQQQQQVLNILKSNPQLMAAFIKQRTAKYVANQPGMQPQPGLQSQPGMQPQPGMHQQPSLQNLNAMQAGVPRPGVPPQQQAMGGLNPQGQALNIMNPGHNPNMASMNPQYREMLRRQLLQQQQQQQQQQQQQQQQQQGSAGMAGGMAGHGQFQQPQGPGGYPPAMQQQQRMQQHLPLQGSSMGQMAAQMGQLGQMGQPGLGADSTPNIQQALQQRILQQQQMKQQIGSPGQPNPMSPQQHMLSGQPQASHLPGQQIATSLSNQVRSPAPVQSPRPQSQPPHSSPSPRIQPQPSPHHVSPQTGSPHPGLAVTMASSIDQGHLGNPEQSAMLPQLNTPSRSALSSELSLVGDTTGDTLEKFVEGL

O=C1[C@H](Cc2ccc(O)cc2)N2C(=O)CCN(C(=O)NCc3ccccc3)[C@H]2CN1Cc1cccc2ccccc12 [ICG-001]
separation of CBP (1-111) from β-catenin on addition of compound ([1]; CBP (1-111) and β-catenin expressed in E. coli, pulled down by immunoprecipitation): CBP (1-111) became separated | binding to the N-terminus of CBP ([1]; CBP (1-111), FIG. 2): binds to the N-terminus sequence of CBP; also recorded: bound to the N-terminus of CBP | binding to p300 [2]: does not binds to p300; also recorded: did not bind; also recorded: does not occur | interaction between CBP1-111 and compound (NMR) [3]: clear interaction | change of NMR peak of CBP1-111 on addition of compound ([3]; buffer pH 6.8, FIGS. 5 and 6): change of a peak | binding to CBP (pull-down) (CBP): binds to CBP; also recorded: bound to CBR
